Consider 13 compounds from patent US11878973B2, “Bicyclic compounds and their uses” (NOVARTIS AG, priority 2021, dated 2024).

Structures are written as SMILES.

One test deals with WRN helicase (Homo sapiens (Human), UniProt Q14191). Nature of the test: In vitro enzymatic activity assay on WRN helicase (DNA dependent ATPase assay, ADP-Glo). It counts as biochemical. Conditions: geometric means of at least 2 determinations; read-out: WRN ATPase Activity (IC50). In a few lines: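 The WRN helicase core (aa N517-P1238), 10 nM, hydrolysed 300 µM ATP in the presence of 0.2 nM FLAP26 DNA (Tris pH 7.5, 2 mM MgCl2, 50 mM NaCl) for 30 min at room temperature. ADP formed was quantified by ADP-Glo luminescence.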
Chain of WRN helicase (Q14191 517-1238): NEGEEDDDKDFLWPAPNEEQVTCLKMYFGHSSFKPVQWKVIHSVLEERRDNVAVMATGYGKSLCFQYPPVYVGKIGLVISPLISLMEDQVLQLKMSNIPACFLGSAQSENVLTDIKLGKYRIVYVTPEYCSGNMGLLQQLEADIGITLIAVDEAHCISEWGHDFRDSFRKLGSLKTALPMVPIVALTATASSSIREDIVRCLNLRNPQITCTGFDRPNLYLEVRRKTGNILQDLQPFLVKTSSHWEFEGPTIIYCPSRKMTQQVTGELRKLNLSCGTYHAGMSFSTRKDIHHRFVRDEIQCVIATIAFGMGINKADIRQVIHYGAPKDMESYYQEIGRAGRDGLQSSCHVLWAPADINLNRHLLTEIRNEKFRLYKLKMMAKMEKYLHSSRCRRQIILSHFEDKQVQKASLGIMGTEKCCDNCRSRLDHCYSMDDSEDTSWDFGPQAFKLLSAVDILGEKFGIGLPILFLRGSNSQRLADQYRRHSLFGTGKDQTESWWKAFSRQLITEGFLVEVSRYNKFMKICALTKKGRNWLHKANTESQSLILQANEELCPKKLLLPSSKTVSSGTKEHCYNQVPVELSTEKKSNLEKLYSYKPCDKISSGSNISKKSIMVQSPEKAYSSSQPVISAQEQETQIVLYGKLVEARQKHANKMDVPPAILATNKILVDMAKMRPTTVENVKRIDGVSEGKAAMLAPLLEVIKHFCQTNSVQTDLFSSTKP
(ADP-Glo first removes unused ATP, then detects ADP through luciferase.)

A further test concerns DLD1-WRN-KO cells. Nature of the test: Proliferation assay DLD1-WRN-KO (CellTiterGlo, 96 hours; off-target effects). Conditions: Homo sapiens, read-out: Proliferation Assay DLD1-WRN-KO (GI50). A general note: In ATP-based viability assays light output follows the ATP content of the culture.
A further test deals with SW48 cells. Nature of the test: Proliferation assay SW48 (CellTiterGlo, 96 hours). Conditions: Homo sapiens, SW48, read-out: Proliferation Assay SW48 (GI50).

Procedure for DLD1-WRN-KO cells: (§1) The WRN-knockdown insensitive colon carcinoma cell line DLD-1 (RRID: CVCL_0248) was obtained from the Korean Cell Line Bank (KCLB), and used to generate a derivative in which the endogenous WRN gene copies were knocked out by CRISPR-mediated editing using standard CRISPR methods. The resulting cell line, DLD1-WRN—KO, was used to assess potential off-target compound effects.
(§2) All cells were maintained at 37° C. in a humidified 5% CO2 incubator.
(§3) For data analysis, the assay background signal that was determined in wells containing medium, but no cells, was subtracted from all other data points prior to further calculations. The extent of growth inhibition and potential cell kill was assessed by comparing the ATP levels (measured using CellTiterGlo, Promega) in compound-treated cells with those present at the time of compound addition. […] 100%, 0% and −100% signify absence of growth inhibition, growth stasis, and complete cell kill, respectively. Compound concentrations leading to half-maximal growth inhibition (G150) and residual cell viability at the highest tested compound concentration (Data (cmax), expressed in percent) were routinely calculated. Data analysis can also be carried out using commercially available software designed to derive IC50 values using 4-parameter fits (e.g. GraphPad Prism, XL fit). The reported GI50 values are the geometrical means of at least 2 independent replicates.
Procedure for SW48 cells: as §1, §2, §3

Consider `CCc1c(N2CCN(C(=O)c3ncccc3O)CC2)c(=O)n2nc(N3CCCC3)nc2n1CC(=O)Nc1cc(Cl)c(C(F)(F)F)cc1C` [Example 19, N-(5-chloro-2-methyl-4-(trifluoromethyl)phenyl)-2-(5-ethyl-6-(4-(3-hydroxypicolinoyl)piperazin-1-yl)-7-oxo-2-(pyrrolidin-1-yl)-[1,2,4]triazolo[1,5-a]pyrimidin-4(7H)-yl)acetamide], for which the IC50 (usually the midpoint of a concentration-inhibition curve) at WRN helicase stood at 0.09 µM. The GI50 in the test on DLD1-WRN-KO cells is 5 µM; with SW48 cells, 0.11 µM.
Taken in the same sequence, the figures for `CCc1c(N2CCN(C(=O)c3ncccc3O)CC2)c(=O)n2nc(N3CCC(N(C)CC(F)F)CC3)nc2n1CC(=O)Nc1ccc(C(F)(F)F)nc1Cl` [Example 20, N-(2-chloro-6-(trifluoromethyl)pyridin-3-yl)-2-(2-(4-((2,2-difluoroethyl)(methyl)amino)piperidin-1-yl)-5-ethyl-6-(4-(3-hydroxypicolinoyl)piperazin-1-yl)-7-oxo-[1,2,4]triazolo[1,5-a]pyrimidin-4(7H)-yl)acetamide] were 0.31 µM, over 10 µM and 0.1 µM.
Take `CCc1c(N2CCN(C(=O)c3ncccc3O)CC2)c(=O)n2nc(N3CC4CC(C3)O4)nc2n1CC(=O)Nc1ccc(C(F)(F)F)cc1C` [Example 21, 2-(2-(6-oxa-3-azabicyclo[3.1.1]heptan-3-yl)-5-ethyl-6-(4-(3-hydroxypicolinoyl)piperazin-1-yl)-7-oxo-[1,2,4]triazolo[1,5-a]pyrimidin-4(7H)-yl)-N-(2-methyl-4-(trifluoromethyl)phenyl)acetamide]: the IC50 at WRN helicase turned out to be 0.18 µM. The results for the GI50 with DLD1-WRN-KO cells and in the test on SW48 cells were over 10 µM and 1.07 µM, respectively.
Taken in the same sequence, the figures for `Cc1c(N2CCN(C(=O)c3ncccc3O)CC2)c(=O)n2nc(N3CC4CC(C3)O4)nc2n1CC(=O)Nc1ccc(C(F)(F)F)cc1F` [Example 22, 2-(2-(6-oxa-3-azabicyclo[3.1.1]heptan-3-yl)-6-(4-(3-hydroxypicolinoyl)piperazin-1-yl)-5-methyl-7-oxo-[1,2,4]triazolo[1,5-a]pyrimidin-4(7H)-yl)-N-(2-fluoro-4-(trifluoromethyl)phenyl)acetamide] were 0.6 µM, over 10 µM and 2.63 µM.
On the same counts, the results for `CCc1c(N2CCN(C(=O)c3ncccc3O)CC2)c(=O)n2nc(N3C[C@@H](F)[C@@H](F)C3)nc2n1CC(=O)Nc1ccc(C(F)(F)F)cc1C` [Example 23, 2-(2-((3R,4S)-3,4-difluoropyrrolidin-1-yl)-5-ethyl-6-(4-(3-hydroxypicolinoyl)piperazin-1-yl)-7-oxo-[1,2,4]triazolo[1,5-a]pyrimidin-4(7H)-yl)-N-(2-methyl-4-(trifluoromethyl)phenyl)acetamide] are 0.26 µM, over 10 µM and 1.54 µM.
Consider `CCc1c(N2CCN(C(=O)c3ncccc3O)CC2)c(=O)n2nc(C3=COCCO3)nc2n1CC(=O)Nc1ccc(C(F)(F)F)nc1Cl` [Example 27, N-(2-chloro-6-(trifluoromethyl)pyridin-3-yl)-2-(2-(5,6-dihydro-1,4-dioxin-2-yl)-5-ethyl-6-(4-(3-hydroxypicolinoyl)piperazin-1-yl)-7-oxo-[1,2,4]triazolo[1,5-a]pyrimidin-4(7H)-yl)acetamide], for which the IC50 on WRN helicase was found to be 0.13 µM. The GI50 was over 10 µM in the test on DLD1-WRN-KO cells and 0.27 µM in the test on SW48 cells.
As to `CCc1c(N2CCN(C(=O)c3ncnc(C)c3O)CC2)c(=O)n2nc(C3=CCCCO3)nc2n1CC(=O)Nc1ccc(C(F)(F)F)nc1Cl` [Example 28, N-(2-chloro-6-(trifluoromethyl)pyridin-3-yl)-2-(2-(3,4-dihydro-2H-pyran-6-yl)-5-ethyl-6-(4-(5-hydroxy-6-methylpyrimidine-4-carbonyl)piperazin-1-yl)-7-oxo-[1,2,4]triazolo[1,5-a]pyrimidin-4(7H)-yl)acetamide], the IC50 on WRN helicase is 0.13 µM. Also, the GI50 in the test with DLD1-WRN-KO cells was over 10 µM; in the test on SW48 cells, 0.1 µM.
For `CCc1c(N2CCN(C(=O)c3ncccc3O)CC2)c(=O)n2nc(C3=CCCCO3)nc2n1CC(=O)Nc1ccc(C(F)(F)F)nc1Cl` [Example 29, N-(2-chloro-6-(trifluoromethyl)pyridin-3-yl)-2-(2-(3,4-dihydro-2H-pyran-6-yl)-5-ethyl-6-(4-(3-hydroxypicolinoyl)piperazin-1-yl)-7-oxo-[1,2,4]triazolo[1,5-a]pyrimidin-4(7H)-yl)acetamide], on WRN helicase, the half-maximal inhibitory concentration (IC50) was 0.09 µM. Further, the figures for the GI50 with DLD1-WRN-KO cells and with SW48 cells were over 10 µM and 0.05 µM, respectively.
On the same counts, the results for `CCc1c(N2CCN(C(=O)c3nccc(Cl)c3O)CC2)c(=O)n2nc(C3=CCCCO3)nc2n1CC(=O)Nc1ccc(C(F)(F)F)nc1Cl` [Example 30, 2-(6-(4-(4-chloro-3-hydroxypicolinoyl)piperazin-1-yl)-2-(3,4-dihydro-2H-pyran-6-yl)-5-ethyl-7-oxo-[1,2,4]triazolo[1,5-a]pyrimidin-4(7H)-yl)-N-(2-chloro-6-(trifluoromethyl)pyridin-3-yl)acetamide] are 0.14 µM, over 10 µM and 0.16 µM.
Consider `CCc1c(N2CCN(C(=O)c3ncnc(C)c3O)CC2)c(=O)n2nc(C3=CCCCO3)nc2n1CC(=O)Nc1ccc(C(F)(F)F)nc1C` [Example 31, 2-(2-(3,4-dihydro-2H-pyran-6-yl)-5-ethyl-6-(4-(5-hydroxy-6-methylpyrimidine-4-carbonyl)piperazin-1-yl)-7-oxo-[1,2,4]triazolo[1,5-a]pyrimidin-4(7H)-yl)-N-(2-methyl-6-(trifluoromethyl)pyridin-3-yl)acetamide], for which, on WRN helicase, the IC50 worked out at 0.23 µM. The values for the GI50 in the test on DLD1-WRN-KO cells and in the test with SW48 cells were over 10 µM and 0.32 µM, respectively.
Taken in the same sequence, the figures for `CCc1c(N2CCN(C(=O)c3ncccc3O)CC2)c(=O)n2nc(C3=CCCCO3)nc2n1CC(=O)Nc1ccc(C(F)(F)F)cc1Cl` [Example 32, N-(2-chloro-4-(trifluoromethyl)phenyl)-2-(2-(3,4-dihydro-2H-pyran-6-yl)-5-ethyl-6-(4-(3-hydroxypicolinoyl)piperazin-1-yl)-7-oxo-[1,2,4]triazolo[1,5-a]pyrimidin-4(7H)-yl)acetamide] were 0.06 µM, 7.6 µM and 0.06 µM.
Consider `CCc1c(N2CCN(C(=O)c3ncccc3O)CC2)c(=O)n2nc(C3=CCOCC3)nc2n1CC(=O)Nc1cnc(C(F)(F)F)cc1Cl` [Example 33, N-(4-chloro-6-(trifluoromethyl)pyridin-3-yl)-2-(2-(3,6-dihydro-2H-pyran-4-yl)-5-ethyl-6-(4-(3-hydroxypicolinoyl)piperazin-1-yl)-7-oxo-[1,2,4]triazolo[1,5-a]pyrimidin-4(7H)-yl)acetamide], for which, at WRN helicase, the IC50 was found to be 0.26 µM. The GI50 in the test on DLD1-WRN-KO cells is over 10 µM; in the test on SW48 cells, 0.22 µM.
For `CCc1c(N2CCN(C(=O)c3ncccc3O)CC2)c(=O)n2nc(C3=CCOCC3)nc2n1CC(=O)Nc1cnc(C(F)(F)F)cc1C` [Example 34, 2-(2-(3,6-dihydro-2H-pyran-4-yl)-5-ethyl-6-(4-(3-hydroxypicolinoyl)piperazin-1-yl)-7-oxo-[1,2,4]triazolo[1,5-a]pyrimidin-4(7H)-yl)-N-(4-methyl-6-(trifluoromethyl)pyridin-3-yl)acetamide], the half-inhibitory concentration (IC50) at WRN helicase was 0.25 µM. Besides, the results for the GI50 in the test on DLD1-WRN-KO cells and in the test with SW48 cells were over 10 µM and 0.28 µM, respectively.
